Measurements taken from ChEMBL document CHEMBL4673209, “Discovery of a novel potent GPR40 full agonist” (Bioorg Med Chem Lett, 2018).
Calls of active or inactive are those of the source. The rule behind the calls is not given here.

Legend:
[1] = molecular target: T1, Free fatty acid receptor 1 (Homo sapiens, UniProt O14842); assay: Agonist activity at human GPR40 transfected in HEK293 cells assessed as increase in intracellular calcium level incubated for 1 hr by Fluo-8 dye based fluorescence analysis; type: functional, cell-based
[2] = molecular target: Free fatty acid receptor 1 (Rattus norvegicus, UniProt Q8K3T4); assay: Agonist activity at rat GPR40 transfected in HEK293 cells assessed as increase in intracellular calcium level incubated for 1 hr by Fluo-8 dye based fluorescence analysis; type: functional, cell-based
Mus musculus [3] = assay: In vivo agonist activity at GPR119 in GPR40 knock-out mouse assessed as induction of GLP-1 secretion at 30 mg/kg; type: functional, organism-based
Mus musculus [4] = assay: In vivo agonist activity at GPR119 in C57 mouse assessed as induction of GLP-1 secretion at 30 mg/kg; type: functional, organism-based
Mus musculus [5] = species on record: Mus musculus; assay: Anti-glycemic activity in C57 mouse assessed as reduction in blood glucose excursion measured for 120 mins by IPGTT; type: functional, organism-based
[6] = molecular target: T1, Free fatty acid receptor 1; assay: Agonist activity at GPR40 in human islets assessed as induction of glucose-stimulated insulin secretion at 10 uM; type: tissue-based; conditions: Pancreatic islet
[7] = molecular target: Free fatty acid receptor 1 (Rattus norvegicus) (UniProt Q8K3T4); assay: Agonist activity at GPR40 in rat INS1 (832/13) cells assessed as induction of glucose-stimulated insulin secretion in presence of 10 mM glucose; type: cell-based
Mus musculus [8] = assay: Induction of GLP-1 secretion in GPR40 knock-out mouse at 100 mg/kg; type: functional, organism-based
Mus musculus [9] = assay: In vivo agonist activity at GPR40 in C57 mouse assessed as induction of GLP1 secretion at 100 mg/kg; type: functional, organism-based
Rattus norvegicus [10] = assay: Anti-glycemic activity in fasted Sprague-Dawley ZDF rat assessed as reduction in post-prandial hyperglycemia by measuring AUC(0 to 2 hrs) for blood glucose at 10 mg/kg administered daily for 8 days and measured on day 8 by OGTT; type: functional; conditions: time 8 day
Rattus norvegicus [11] = assay: Anti-glycemic activity in fasted Sprague-Dawley ZDF rat assessed as reduction in post-prandial hyperglycemia by measuring AUC(0 to 2 hrs) for blood glucose at 10 mg/kg administered for 1 day and measured on day 1 by OGTT; type: functional
Rattus norvegicus [12] = assay: Anti-glycemic activity in fasted Sprague-Dawley ZDF rat assessed as reduction in post-prandial hyperglycemia by measuring AUC(0 to 2 hrs) for blood glucose at 3 mg/kg administered daily for 8 days and measured on day 8 by OGTT; type: functional; conditions: time 8 day
Rattus norvegicus [13] = assay: Anti-glycemic activity in fasted Sprague-Dawley ZDF rat assessed as reduction in post-prandial hyperglycemia by measuring AUC(0 to 2 hrs) for blood glucose at 3 mg/kg administered for 1 day and measured on day 1 by OGTT; type: functional
Rattus norvegicus [14] = assay: Anti-glycemic activity in fasted Sprague-Dawley ZDF rat assessed as increase in insulin secretion by measuring insulin level in plasma at 3 mg/kg administered 30 mins prior to glucose challenge measured after 140 mins by OGTT; type: functional; conditions: time 170 min, 2.833 h
Rattus norvegicus [15] = assay: Anti-glycemic activity in fasted Sprague-Dawley ZDF rat assessed as increase in insulin secretion by measuring insulin level in plasma at 10 mg/kg administered 30 mins prior to glucose challenge measured after 140 mins by OGTT; type: functional; conditions: time 170 min, 2.833 h
Mus musculus [16] = species on record: Mus musculus; assay: Anti-glycemic activity in GPR40 knockout mouse assessed as reduction in blood glucose excursion measured for 120 mins by IPGTT; type: functional, organism-based

T1 sequence (O14842 whole entry): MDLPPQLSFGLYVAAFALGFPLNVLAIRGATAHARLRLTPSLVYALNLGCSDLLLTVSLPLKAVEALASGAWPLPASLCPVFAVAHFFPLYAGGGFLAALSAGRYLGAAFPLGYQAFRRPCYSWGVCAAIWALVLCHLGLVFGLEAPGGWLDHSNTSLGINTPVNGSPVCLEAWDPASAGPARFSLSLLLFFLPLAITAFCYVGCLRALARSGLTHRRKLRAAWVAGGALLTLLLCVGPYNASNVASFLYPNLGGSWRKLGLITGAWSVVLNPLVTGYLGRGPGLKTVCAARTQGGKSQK
Chain of Free fatty acid receptor 1 (Rattus norvegicus, UniProt Q8K3T4) (Q8K3T4 whole entry): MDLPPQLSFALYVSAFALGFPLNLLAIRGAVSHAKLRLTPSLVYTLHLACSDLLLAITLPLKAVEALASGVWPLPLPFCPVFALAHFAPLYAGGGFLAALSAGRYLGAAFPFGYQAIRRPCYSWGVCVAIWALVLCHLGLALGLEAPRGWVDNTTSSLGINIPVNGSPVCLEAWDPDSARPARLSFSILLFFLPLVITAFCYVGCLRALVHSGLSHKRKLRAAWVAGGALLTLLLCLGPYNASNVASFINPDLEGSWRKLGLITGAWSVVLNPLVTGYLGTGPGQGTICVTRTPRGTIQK
Chain of Free fatty acid receptor 1 (Rattus norvegicus) (Q8K3T4 whole entry): as above

Which EC50 ([1]; hek293) does the source give for COc1ccc(F)c(-c2ncc(COc3cccc([C@@H](CC(=O)O)C4CC4)c3)nc2CC(C)(C)C)c1 here?
Its EC50 is 2 nM.

COc1ccc(F)c(-c2ncc(COc3cccc([C@@H](CC(=O)O)C4CC4)c3)nc2C2=CCCC2(C)C)c1 was tested. Which EC50 [2] did it give?
Its EC50 is 201 nM.

COc1ccc(F)c(-c2ncc(COc3cccc([C@@H](CC(=O)O)C4CC4)c3)nc2-c2cc(C)cc(C)c2)c1 was tested. Which EC50 [1] did it give?
Its EC50 is 7.5 nM.

COc1ccc(F)c(-c2ncc(COc3cccc([C@@H](CC(=O)O)C4CC4)c3)nc2C=C(C)C)c1 was tested. Which EC50 [1] did it give?
Its EC50 is 9.4 nM.

How did the Activity (Mus musculus [3]) turn out when CC(C)OC(=O)N1CCC(Oc2ncnc3c2CCN3c2ccc(S(C)(=O)=O)cc2F)CC1 was run?
The Activity was “Active”.

And the Activity (Mus musculus [4])?
Its Activity is “Active”.

For COc1ccc(F)c(-c2cnc(COc3cccc([C@@H](CC(=O)O)C4CC4)c3)cc2C2=CCCC2(C)C)c1, which EC50 [2] is on record?
Its EC50 is 46 nM.

And the EC50 [1]?
The EC50 was 11 nM.

What does the source list for COc1ccc(F)c(-c2ncc(COc3cccc([C@@H](CC(=O)O)C4CC4)c3)cc2C2=CCCC2(C)C)c1?
EC50 [2]: 64.4 nM; EC50 [1]: 21.3 nM

COc1cc(-c2ncc(COc3cccc([C@@H](CC(=O)O)C4CC4)c3)nc2C2=CCCC2(C)C)c(F)cn1 was tested. Which EC50 [1] did it give?
Its EC50 is 11 nM.

Which results are given for CCCCc1nc(COc2cccc([C@@H](CC(=O)O)C3CC3)c2)cnc1-c1cc(OC)ccc1F?
EC50 [2]: 28 nM; EC50 [1]: 2.5 nM

Which results are given for COc1ccc(F)c(-c2ccc(COc3cccc([C@@H](CC(=O)O)C4CC4)c3)nc2C2=CCCC2(C)C)c1?
EC50 [2]: 44.7 nM; EC50 [1]: 9.4 nM

Which Activity (Mus musculus [5]) does the source give for COc1ccc(Cl)cc1C(=O)NCCc1ccc(S(=O)(=O)NC(=O)NC2CCCCC2)cc1 here?
The Activity was “Active”.

COc1ccc(F)c(-c2ccc(COc3cccc([C@@H](CC(=O)O)C4CC4)c3)cc2C2=CCCC2(C)C)c1 was tested. Which Activity ([6]; filed as agonist) did it give?
The Activity was “Active”.

What about the Activity ([7]; INS-1 832/13, filed as agonist) of the same compound?
The Activity was “Active”.

What about the EC50 [2] of the same compound?
The EC50 was 11.4 nM.

What about the EC50 [1] of the same compound?
Its EC50 is 3.5 nM.

How did the EC50 [1] turn out when COc1ccc(F)c(-c2ncc(COc3cccc([C@@H](CC(=O)O)C4CC4)c3)nc2N2CC3(CCC3)C2)c1 was run?
The EC50 was 4.5 nM.

How did the EC50 [1] turn out when COc1ccc(F)c(-c2ncc(COc3cccc([C@@H](CC(=O)O)C4CC4)c3)nc2OCC(C)C)c1 was run?
The EC50 was 9.6 nM.

What does the source list for COc1ccc(F)c(-c2cnc(COc3cccc([C@@H](CC(=O)O)C4CC4)c3)nc2C2=CCCC2(C)C)c1?
EC50 [2]: 70.1 nM; EC50 [1]: 12.4 nM

How did the Activity (Mus musculus [8]) turn out when Cc1cc(OCCCS(C)(=O)=O)cc(C)c1-c1cccc(COc2ccc3c(c2)OC[C@H]3CC(=O)O)c1 [FASIGLIFAM] was run?
The Activity was “inactive”.

What about the Activity (Mus musculus [9]) of the same compound?
The Activity was “inactive”.

What about the Activity (Rattus norvegicus [10]) of the same compound?
Its Activity is 135502 ng/mL.hr.

And the Activity (Rattus norvegicus [11])?
The Activity was 59293 ng/mL.hr.

And the Activity (Rattus norvegicus [12])?
Its Activity is 20561 ng/mL.hr.

What about the Activity (Rattus norvegicus [13]) of the same compound?
The Activity was 12194 ng/mL.hr.

What about the Activity (Rattus norvegicus [14]) of the same compound?
Its Activity is 4020 ng/mL.

And the Activity (Rattus norvegicus [15])?
The Activity was 19250 ng/mL.

And the Activity (Mus musculus [5])?
The Activity was “Active”.

What about the Activity (Mus musculus [16]) of the same compound?
The Activity was “inactive”.

What about the Activity [6] of the same compound?
The Activity was “inactive”.

And the Activity ([7]; INS-1 832/13)?
Its Activity is “inactive”.
